Measurements taken from patent publication US20130123261A1, “ISOXAZOLINE COMPOUNDS IN TYPE 2 DIABETES AND OTHER MALADIES” (CPSI STOCKHOLDER TRUST, priority 2009, published 2013).

System: STZ-induced NIDDM in outbred ICR mice
Assay: Effect of orally administered MIF antagonist on STZ-induced NIDDM in ICR mice
Type: in vivo
Conditions: for blood glucose levels: STZ 90 mg/Kg i.p., oral, daily single dose for 30 days; for blood glucose levels / serum levels of inflammatory cytokines / pro-inflammatory cytokine production: dose not stated
Description: ICR, MIF−/− BALB/c and BALB/c mice were fasted 20 hr before induction of diabetes with a single i.p. injection of STZ 90 mg/Kg (for ICR mice) or 130 mg/kg (for BALB/c mice) (Sigma, St. Louis, Mo., U.S.A.) freshly dissolved in 0.05 M citrate buffer, pH 4.5 following the protocol previously reported (13;14). Normal mice of each strain were injected with equivalent volume of citrate buffer as negative controls.
Blood samples from WT and MIF−/− mice were collected at 0, 1, 2, 4, 6, 8, and 10 weeks after STZ injection by tail snipping. Serum glucose levels were determined using Accu-Chek® glucometer. Body weights were measured immediately before blood collection. The animals were kept in individual metabolic cages for 24 hrs and provided with drinking water (100 ml) and food (75 g). The water and food consumption as well as urine output over a 24 hr period was determined. This process was repeated every week until 10 weeks after STZ induction.
Following administration of STZ, blood was collected at 1-week intervals by tail snips. Levels of TNF-α, IL-1β, IL-6, IL-4, IL-10, resistin (all from Peprotech, Mexico), and insulin (Lincon, St. Charles, Mo.) in sera were determined by ELISA as per the manufacturer's instructions.
Age and sex-matched ICR mice were fasted for 20 hrs and then injected i.p. with STZ (90 mg/Kg). Six-hours later following STZ injection mice were administered CSP1306 or PBS daily in a single dose orally for 30 days. Blood was collected by tail snipping once every week to measure glucose levels using Accu-Chek® glucometer and to determine cytokine levels by ELISA as described above. CPSI 1306 has the following formula: […]
NIDDM was induced in ICR mice by a single intraperitoneal injection of STZ (90 mg/kg). On day 5 post-STZ injection and thereafter mice were orally administered CPSI-1306 (1 mg/kg or 0.1 mg/Kg) daily for 30 days. Mice were bled once a week by tail sniping and levels of glucose (A) and inflammatory cytokines IL-6 (B) and TNF-α (C) in the blood were determined. The data are from one representative experiment out of three. * p<0.05.

[1] = ICR mice with STZ injection, 0.1 and 0.01 mg/kg
[2] = ICR mice, STZ-induced NIDDM, oral administration, ELISA

## O=C(C[C@H]1CC(c2ccc(F)cc2F)=NO1)N1CCOCC1 [CPSI-1306]
[1]
  blood glucose: significant reduction
  polyuria: less polyuria
  serum levels of inflammatory cytokines: significant reduction
  severity of NIDDM: reduced severity of NIDDM
ICR mice with STZ injection, after stoppage of treatment, data not shown
  blood glucose levels after stoppage of treatment: spike in blood glucose levels
ICR mice, listed as CSP156
  blood glucose levels: significant drop
ICR mice, listed as CSP1306
  blood glucose levels: significantly lowered blood glucose levels in majority of animals
ICR mice, listed as CSPI-1306
  blood glucose levels: highly effective
[2]
  level of pro-inflammatory cytokine IL-6 in the sera: significant reduction
  level of pro-inflammatory cytokine TNF-α in the sera: significant reduction
ICR mice, STZ-induced NIDDM, oral administration, listed as CSP156
  serum levels of inflammatory cytokines / pro-inflammatory cytokine production: reduction in serum levels of inflammatory cytokines
ICR mice, STZ-induced NIDDM, oral administration, listed as CSPI-1306
  serum levels of inflammatory cytokines / pro-inflammatory cytokine production: highly effective in suppressing pro-inflammatory cytokine production
Outbred ICR mice, STZ 90 mg/kg i.p., oral 1 mg/kg or 0.1 mg/Kg daily for 30 days from day 5 post-STZ
  severity and progression of STZ-induced NIDDM (FIG. 6): Significantly Reduces Severity and Progression
